According to a compilation of properties of binary mixtures (doi:10.1021/acs.jced.9b01103):

Assay: xn = mol fraction of the nth substance listed
Details: 96.7 kPa

CS(C)=O + CC(=O)[O-].CCCC[n+]1ccn(C)c1
x2 = 0
Details | viscosity [mPa·s]
303.15 K | 1.8
308.15 K | 1.665
313.15 K | 1.529
318.15 K | 1.407
323.15 K | 1.304
328.15 K | 1.211
333.15 K | 1.127
343.15 K | 0.989
348.15 K | 0.931

CC(=O)[O-].CCCC[n+]1ccn(C)c1 + CS(C)=O
viscosity [mPa·s]
Details | 303.15 K | 308.15 K | 313.15 K | 318.15 K | 323.15 K | 328.15 K | 333.15 K | 338.15 K | 343.15 K | 348.15 K
x1 = 0.21 | 6.44 | – | 4.98 | – | 3.81 | 3.39 | 3.08 | 2.77 | – | 2.3
x1 = 0.285 | 9.15 | 7.85 | 6.63 | 5.91 | – | – | – | 3.69 | 3.3 | 3.01
x1 = 0.369 | 13.34 | 11.31 | 9.67 | 8.25 | 7.12 | 6.3 | 5.48 | 4.89 | – | 3.97
x1 = 0.478 | 22.7 | 18 | 14.83 | 12.54 | 10.64 | 9.15 | 7.97 | 6.92 | 6.06 | 5.44
x1 = 0.606 | 51.5 | 39.2 | 30.3 | – | 19.2 | – | 12.9 | 10.5 | 8.81 | 7.34
x1 = 0.789 | 98.8 | 74.1 | 56.1 | 42.7 | 33.2 | 26.7 | 21.7 | – | 15.07 | 12.69
x1 = 0.884 | 131.1 | 96.5 | 75.2 | – | 47.5 | 39 | 32.8 | 28.1 | – | –
x1 = 1 | 253 | 180.6 | 133.1 | 102 | 79.4 | 62.1 | 50.2 | 40.7 | – | 28.4
